This is an account of results in paper PMC5628579, “Potent mechanism-based sirtuin-2-selective inhibition by an in situ-generated occupant of the substrate-binding site, “selectivity pocket” and NAD^+-binding site” (Chemical Science, 2017).

Test [1] addresses T1, SIRT1 (Homo sapiens, UniProt Q96EB6).
T1 sequence (Q96EB6 1-747): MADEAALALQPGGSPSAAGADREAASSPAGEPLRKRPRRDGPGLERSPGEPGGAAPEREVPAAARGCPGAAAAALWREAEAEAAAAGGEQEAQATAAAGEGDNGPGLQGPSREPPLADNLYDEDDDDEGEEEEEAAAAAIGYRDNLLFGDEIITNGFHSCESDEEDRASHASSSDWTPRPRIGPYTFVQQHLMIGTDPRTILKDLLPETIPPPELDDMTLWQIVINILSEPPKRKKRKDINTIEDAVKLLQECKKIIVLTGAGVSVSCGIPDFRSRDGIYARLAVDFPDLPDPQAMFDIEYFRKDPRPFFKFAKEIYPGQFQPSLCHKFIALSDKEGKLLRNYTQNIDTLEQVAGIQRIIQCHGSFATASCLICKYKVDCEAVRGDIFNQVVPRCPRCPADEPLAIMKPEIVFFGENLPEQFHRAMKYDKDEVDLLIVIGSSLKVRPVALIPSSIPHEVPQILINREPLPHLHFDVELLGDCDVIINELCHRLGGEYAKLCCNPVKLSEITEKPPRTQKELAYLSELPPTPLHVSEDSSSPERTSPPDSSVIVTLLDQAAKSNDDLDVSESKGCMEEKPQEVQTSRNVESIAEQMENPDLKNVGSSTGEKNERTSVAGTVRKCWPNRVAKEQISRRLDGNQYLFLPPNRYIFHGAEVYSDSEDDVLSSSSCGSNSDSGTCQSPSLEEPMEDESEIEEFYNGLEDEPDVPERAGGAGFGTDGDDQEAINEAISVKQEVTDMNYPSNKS
Nature of the test: Fluor de Lys SIRT1 assay.

Test [2] concerns the target T2, SIRT3 (Homo sapiens, UniProt Q9NTG7).
T2 sequence (Q9NTG7 1-399): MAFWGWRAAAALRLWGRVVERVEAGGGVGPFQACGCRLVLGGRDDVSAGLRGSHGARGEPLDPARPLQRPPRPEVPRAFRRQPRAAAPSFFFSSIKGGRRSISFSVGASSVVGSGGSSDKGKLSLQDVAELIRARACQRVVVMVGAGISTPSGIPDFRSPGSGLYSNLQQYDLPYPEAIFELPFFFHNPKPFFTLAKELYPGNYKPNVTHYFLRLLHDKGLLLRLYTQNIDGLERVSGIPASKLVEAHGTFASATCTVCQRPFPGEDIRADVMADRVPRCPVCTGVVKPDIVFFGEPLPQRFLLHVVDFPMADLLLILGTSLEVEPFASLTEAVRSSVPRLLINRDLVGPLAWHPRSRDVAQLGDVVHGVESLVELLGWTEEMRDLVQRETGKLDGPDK
Nature of the test: Fluor de Lys SIRT3 assay.

Test [3] concerns the target T3, SIRT2 (Homo sapiens, UniProt Q8IXJ6).
T3 sequence (Q8IXJ6 1-389): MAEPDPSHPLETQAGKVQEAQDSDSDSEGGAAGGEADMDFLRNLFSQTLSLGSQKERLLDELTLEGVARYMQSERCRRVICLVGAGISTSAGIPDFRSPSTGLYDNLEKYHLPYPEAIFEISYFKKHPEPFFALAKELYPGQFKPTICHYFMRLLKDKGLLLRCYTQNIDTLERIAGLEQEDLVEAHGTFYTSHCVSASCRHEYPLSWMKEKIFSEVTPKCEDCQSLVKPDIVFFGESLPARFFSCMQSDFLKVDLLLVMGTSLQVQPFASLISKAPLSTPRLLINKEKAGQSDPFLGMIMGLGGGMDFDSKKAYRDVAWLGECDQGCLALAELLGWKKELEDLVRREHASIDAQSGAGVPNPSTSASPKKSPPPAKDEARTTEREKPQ
Briefly: Fluor de Lys SIRT2 assay.

Each structure is given as a SMILES string.

Take `C[C@H](NC(=O)[C@H](CCCCNC(=S)CNC(=O)c1ccccc1Nc1cccc(OCCc2ccccc2)c1)NC(=O)OCc1ccccc1)C(N)=O` [Compound 36]: the half-maximal inhibitory concentration (IC50) in test [1] was 1560 ± 60 nM; in test [2], 9490 ± 1700 nM; in test [3], 55 ± 3.5 nM. The inhibition at 1 µM came to 29.5 ± 2.1% in test [1] (read-out: % inhibition at 1 μM SIRT1), 2 ± 1.8% in test [2] (read-out: % inhibition at 1 μM SIRT3) and 100 ± 3.4% in test [3] (read-out: % inhibition at 1 μM SIRT2). The “SIRT1 [IC50]/SIRT2 [IC50]” value in test [3] (selectivity ratio) is recorded as 28.4. Besides, in test [3] (selectivity ratio), the “SIRT3 [IC50]/SIRT2 [IC50]” value was 172.5.
